In brackets after ≈: the same amount, converted by molar mass. Like-named read-outs stand apart in the source and are kept apart here.
Experiments:
Format in all cases: cell-based, human
PBMCs = test: MTT cytotoxicity assay in PBMCs; conditions: Homo sapiens, PBMC; for IC20: incubation for 48 h, read-out: IC20 PBMCs (inhibitory concentration at 20% growth)
Procedure: PBMCs were isolated from blood samples using the Ficoll-Hypaque technique. Initially, 10–20 mL of blood was collected in a heparin tube at a ratio of 1:500 from a minimum of three healthy volunteers. Subsequently, the blood samples were diluted with Phosphate buffer saline (PBS), pH 7.4, at a ratio of 1:1 to reduce viscosity. Histopaque-1077 (Sigma-Aldrich, MA, USA) was then underlaid the diluted sample and centrifuged at 400×g for 30 min. The resulting PBMCs were collected, washed with PBS, pH 7.4, and prepared for further experiments.
MTT (3-(4,5-dimethylthiazol-2-yl)-2,5-diphenyltetrazolium bromide) assay was used to investigate the cytotoxicity of the test samples. KG-1a (1.5 × 10^4 cells/well), K562 (1.0 × 10^4 cells/well), PBMCs (1.0 × 10^5 cells/well), A549 (5.0 × 10^3 cells/well), MCF-7 (5.0 × 10^3 cells/well), and HeLa (5.0 × 10^3 cells/well) were seeded into a 96-well plate and incubated overnight at 37 °C with 5% CO2. […] After that, 5 mg/mL of MTT dye solution (Sigma-Aldrich, MA, USA) was added and incubated for 4 h. The produced formazan crystals were dissolved in 200 µL of DMSO (Sigma-Aldrich, MA, USA); then, the optical density (OD) was measured using an ELISA plate reader (Metertech, Taipei, Taiwan) at 578 nm with a reference wavelength of 630 nm. The percentage of surviving cells was calculated from the absorbance values of the test and control wells using the following Equation. 1 [drawing 1]
where ODsample is a mean absorbance in test well and ODvehicle control is a mean absorbance in VC well. The average percentage of surviving cells at each concentration obtained from triplicate experiments was plotted as a dose-response curve. Inhibitory concentration values at 50% growth (IC50 value) were defined as the lowest concentration of the test sample that inhibited cell growth by 50% compared to the untreated control.
To calculate IC50 values, a dose-response curve was fitted using non-linear regression analysis, as described in the GraphPad Prism guidelines (https://www.graphpad.com/support/faq/how-to-determine-an-icsub50sub/). The IC50 value was obtained by determining the point at which the curve intersected 50% growth inhibition. Non-linear regression graphs of the dose-response curve for each compound are provided in the supplementary data file (Figs. S1–S8).

KG-1a cells [1] = test: Trypan blue exclusion test, cell numbers of KG-1a cells; conditions: IC20 concentrations, 48 h
Procedure: (§1) This test was used to confirm the cytotoxicity of the test samples. The cancer cells after exposure to crude ethanolic extracts and active compounds for 48 h were harvested and washed with ice-cold PBS, pH 7.4 for 3 times. Then, the cells were resuspended with PBS, pH 7.4. The cell suspensions were diluted with PBS, pH 7.4 at the appropriate dilution before being mixed with 0.2% trypan blue solution at 1:2 dilution for cell count on a hemocytometer. From this test, the viable cells and the dead cells could also be obviously detected.
as §1, with “crude ethanolic extracts and active compounds. KG-1a” for “the test samples. The cancer”

KG-1a cells [2] = test: Cell cycle and apoptosis (sub-G1) assay by flow cytometry in KG-1a cells; conditions: 48 h; for change of cell cycle phase population compared to VC: IC20 concentrations; for G2/M phase population: IC50 concentrations
Procedure: After treating KG-1a cells with active compounds at various concentrations for 48 h, the cells were pulsed with 10 µM BrdU (Sigma-Aldrich, MA, USA) for 20 min at 37 °C in an incubator with 5% CO2. Subsequently, the cells were harvested, washed with ice-cold PBS, pH 7.4 three times, and then fixed with 70% ethanol in PBS, pH 7.4 at −30 °C. Following fixation, the cells were washed and resuspended in 2 N HCl/0.5% Triton X-100 for 30 min at room temperature (RT). Then, 0.1 M sodium tetraborate decahydrate was added for 2 min at RT to neutralize the acid. Subsequently, the cells were stained with FITC-anti-BrdU antibody for 30 min at RT. After washing, the cells were resuspended in propidium iodide (PI) (Dojindo, Kumamoto, Japan) in PBS, pH 7.4 at a ratio of 1:1,000. The cell cycle phases were detected using a flow cytometer (CytoFLEX S, Beckman Coulter, CA, USA) and analyzed with the CytExpert program (Beckman Coulter, CA, USA).
The flow cytometry data were analyzed to assess both apoptosis and cell cycle distribution. Apoptosis was evaluated by determining the percentage of cells in the sub-G1 phase using the Nicoletti assay. For cell cycle analysis, populations in the G1, S, and G2/M phases were calculated after excluding the sub-G1 population to avoid interference from apoptotic cells, allowing for a clearer assessment of cell cycle arrest in different phases. Data were presented in separate graphs for the sub-G1 population and cell cycle phase distributions.

[3] = system: CD34 protein expression in KG-1a cells; test: CD34 protein expression in KG-1a cells by Western blotting; conditions: IC20 concentrations, 48 h, normalized to GAPDH
Procedure: KG-1a cells (1.5 × 10^5 cells/mL) were treated with compounds or extracts at different incubation times. Then, the cells were harvested and the whole proteins were extracted using a RIPA buffer (25 mM Tris-base, pH 7.6, 0.1% SDS, 1% Triton X-100, 150 mM NaCl, and 1 mM EDTA). The protein concentration was measured using the Folin-Lowry or Bradford assay. The whole protein lysates (30 µg/lane) were then separated through 7.5% SDS-PAGE under reducing conditions and then transferred to PVDF membranes. The membranes were blocked in 5% skim milk in PBS, pH 7.4 at RT for 2 h, then, target proteins were probed with specific primary antibodies (anti-WT1, anti-CD34, anti-GAPDH, anti-cleaved caspase-3, anti-cleaved PARP, anti-phospho-Akt, anti-phospho-c-Jun, anti-phospho-SAPK/JNK, and anti-YAP/TAZ) indicated in Table S10 which diluted at a ratio of 1:1,000 in PBS, pH 7.4 at RT for 2 h. After incubation, the membranes were rinsed 6 times with 0.1% Tween-20 (Sigma-Aldrich, MA, USA) in PBS, pH 7.4 (PBS-T), each time for 5 min. The reaction was followed by HRP-conjugated secondary antibody at 1:20,000 dilution in PBS, pH 7.4 at RT for 2 h, then, the membranes were rinsed 6 times for 5 min each with PBS-T. The proteins were shown using Immobilon Forte Western HRP substrate (Millipore, MA, USA). Finally, the protein band signal was quantified by using a scan densitometer (Bio-Rad Laboratories, CA, USA).

[4] = Table S8, PBMCs, first replicate, read-out: IC50 value R1
[5] = Table S8, PBMCs, second replicate, read-out: IC50 value R2
[6] = Table S8, PBMCs, third replicate, read-out: IC50 value R3
[7] = active compounds and drugs, MTT, 48 h, read-out: IC50 PBMCs
[8] = IC20 concentration (nocodazole 6 ng/mL, curcumin 3 µg/mL, shogaol 0.12 µg/mL)
[9] = higher concentrations than IC20

SMILES	IC50 (PBMCs; [4]) [µg/mL]	IC50 (PBMCs; [5]) [µg/mL]	IC50 (PBMCs; [6]) [µg/mL]	IC50 (PBMCs; [7]) [µg/mL]	IC20 (PBMCs) [µg/mL]	decrease of total cell number compared to VC (KG-1a cells [1]) [%]	normalized viable cell counts (KG-1a cells [1])	effect on sub-G1 population compared to VC (KG-1a cells [2]; [8])	change of cell cycle phase population compared to VC (KG-1a cells [2])	G2/M phase population (KG-1a cells [2]; sub-G1 excluded) [%]	effect on sub-G1 population compared to VC (KG-1a cells [2]; [9])	decrease of CD34 protein level compared to VC [3] [%]	decrease of S phase population (KG-1a cells [2]; 1.5 µg/mL, sub-G1 excluded) [%]
COc1cc(/C=C/C(=O)CC(=O)/C=C/c2ccc(O)c(OC)c2)ccc1O [Curcumin, curcumin]	13.8 (≈ 37.4 µM)	14.6 (≈ 39.6 µM)	13 (≈ 35.2 µM)	13.8 ± 0.82 (≈ 37.4 µM)	3.72 ± 0.58 (≈ 10.1 µM)	40.75 ± 12.78	954.40 ± 3.19 × 10^3 cells per 1 million total cells	did not significantly increase the sub-G1 population	neither curcumin nor shogaol induced significant changes in the cell cycle phase population	43.66 ± 6.75	significant increases in the sub-G1 population	29.29 ± 2.43	
CCCCC/C=C/C(=O)CCc1ccc(O)c(OC)c1 [Shogaol, shogaol]	8.3 (≈ 30 µM)	9.9 (≈ 35.8 µM)	9.35 (≈ 33.8 µM)	9.18 ± 0.82 (≈ 33.2 µM)	6.06 ± 1.11 (≈ 21.9 µM)	35.32 ± 6.10	976.13 ± 13.69 × 10^3 cells per 1 million total cells	did not significantly increase the sub-G1 population	neither curcumin nor shogaol induced significant changes in the cell cycle phase population	31.38 ± 1.60	significant increases in the sub-G1 population	35.93 ± 3.70	40.56 ± 3.82
